{
  "source": "PubChem BioAssay AID2060610",
  "about": "(Molecular Pharmacology Branch, DTP, NCI, 2025)",
  "system": "616215-338-R-J1-PDC complex spheroids, viability % test/control",
  "assay": "Anticancer human tumor 616215-338-R-J1-PDC patient-derived colon adenocarcinoma cell line growth inhibition [CLK]",
  "conditions": "for viability, T/C: stronger effect = lower value",
  "description": "A high-throughput screen of multi-cell type tumor spheroids was designed to identify active combinations of […] and targeted small molecules. Complex spheroids include a stromal component modeled by human endothelial cells (HUVEC) and fibroblasts modeled by human mesenchymal stem cells (MSCs). The concentration ranges selected for each drug and investigational agent were based upon clinically achievable concentrations if the clinical Cmax of the agent was known.\nCompounds. The drugs and investigational agents: cirtuvivint (SM08502; NSC835563), CC-671 (NSC850746), vemurafenib (NSC761431), tapotoclax (NSC804041), sotorasib (NSC818433), adagrasib (NSC831453), MRTX-1133 (NSC836407), BAY2416964 (NSC825713), copanlisib (NSC816437), inavolisib (NSC800729), abemaciclib (NSC768073), osimertinib (NSC779217), entinostat (NSC756642), eltanexor (KPT-8602, NSC794443), venetoclax (NSC766270), ceralasertib (NSC777638), bortezomib (NSC756655), olaparib (NSC753686), talazoparib (NSC767125), alisertib (NSC759677), peposertib (NSC802822), gemcitabine (NSC613327), 5-fluorouracil (NSC19893), SN-38 (NSC673596), oxaliplatin (NSC266046), paclitaxel (NSC125973), and doxorubicin (NSC123127), were obtained from the National Cancer Institute (NCI) Developmental Therapeutics Program Chemical Repository. The FDA-approved anticancer drug set is available from the Developmental Therapeutics Program at https://dtp.cancer.gov/organization/dscb/obtaining/available plates.htm. […] The stock solutions were prepared in dimethyl sulfoxide (DMSO, Sigma-Aldrich, St. Louis, MO, cat. D2650), except for the platinum complexes which were prepared in saline (Quality Biological, Gaithersburg, MD, cat. 114-055-101), at 800-fold the tested concentration and stored at -70 degrees C prior to their use. All drugs and investigational agents were tested over a range starting from a high concentration at or near the clinical Cmax and decreasing in half-log increments. If the clinical Cmax for an agent had not been determined, the highest concentration tested was 10 microM.\nCell Culture. All cells were maintained in an incubator at 37 degrees C and 5% CO2 with 95% humidity. The PDC lines were cultured according to standard operating procedures established by the NCI PDMR. Briefly, all PDCs were thawed and cultured in Matrigel-coated flasks prepared with a working solution of 1X Ham's F-12 nutrient mix, without supplementation (Invitrogen, Waltham, MA, cat. 11765054), 100 U/mL penicillin-streptomycin (Invitrogen, cat. 15140122), and 2.5% Matrigel (Corning Inc., Corning, NY, cat. 354248) for the first three passages. The 947758-054-R-J2-PDC line was cultured in 6B/Colon 1A media, which includes advanced DMEM/F-12 (Thermo Fisher Scientific, cat. 12634028), 10 mM HEPES (Thermo Fisher Scientific, cat. 15630080), 1X GlutaMAX supplement (Thermo Fisher Scientific, cat. 35050061), 0.1 mg/mL primocin (InvivoGen, cat. ant-pm-2), 10% defined fetal bovine serum, heat inactivated (HyClone Laboratories Inc., cat. SH30070.03HI), 1.25 mM N-Acetyl-L-cysteine (Sigma-Aldrich, cat. A9165), 10 mM nicotinamide (Sigma-Aldrich, cat. N0636), 1X B-27 supplement (Thermo Fisher Scientific, cat. 17504044), 1X N-2 supplement (Thermo Fisher Scientific, cat. 17502048), and 10 microM Y-27632 dihydrochloride (Tocris Bioscience, cat. 1254). The 876862-298-R-J1-PDC was cultured in 6E media, which includes all 6B/Colon 1A media components plus 50% L-WRN conditioned media (ATCC, cat. CRL-3276), 50 ng/mL recombinant human EGF recombinant protein (hEGF; Thermo Fisher Scientific, cat. PHG0311), 10 ng/mL recombinant human fibroblast growth factor 10 (hGFG-10; PeproTech, cat. 100-26), 1 ng/mL recombinant human fibroblast growth factor 2 (hFGF-2; PeproTech, cat. 100-18B), and 1 µM prostaglandin E2 (PGE2; Tocris, cat. 2296). The 227483-062-R1-J1-PDC line was cultured in Panc media, containing all 6E components except hFGF-2, with the addition of 500 nM SB-431542 (Selleckchem, cat. S1067) and 10 nM gastrin (Tocris, cat. 3006). […]",
  "note": "Values joined by “and” are separate entries in the source; they are usually repeats but may differ in a detail not shown here. Equal entries are not always repeated.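 Further: spheroids exposed to agents for 7 days.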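 Wherever viability, T/C is given: 100% = DMSO vehicle wells.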",
  "data": [
    {"smiles": "O=C(c1cc(Cc2n[nH]c(=O)c3ccccc23)ccc1F)N1CCN(C(=O)C2CC2)CC1", "values": [
      {"measurement": "viability, T/C", "setting": "compound 0.0316 µM", "value": "96.4% and 102%"},
      {"measurement": "viability, T/C", "setting": "compound 0.1 µM", "value": "96.1% and 94.5%"},
      {"measurement": "viability, T/C", "setting": "compound 0.316 µM", "value": "87.9% and 96.6%"},
      {"measurement": "viability, T/C", "setting": "compound 1 µM", "value": "88.2% and 93.6%"},
      {"measurement": "viability, T/C", "setting": "compound 3.16 µM", "value": "106% and 99.5%"},
      {"measurement": "viability, T/C", "setting": "compound 10 µM", "value": "97.4% and 99.5%"},
      {"measurement": "IC50", "setting": "curve of compound", "value": "> 10000", "unit": "nM"}
    ]},
    {"smiles": "COC1C=CCC(C)C(C)S(=O)(=O)NC(=O)c2ccc3c(c2)N(CC2CCC21)CC1(CCCc2cc(Cl)ccc21)CO3", "note": "(centres undefined) + CNC(=O)c1ccc(Nc2nc(OC3CCCC3)c3c(-c4ccc5nc(C)oc5c4)c[nH]c3n2)c(OC)c1", "values": [
      {"measurement": "IC50", "setting": "curve of first compound, second compound 0.0316 µM", "value": "> 10000", "unit": "nM"},
      {"measurement": "IC50", "setting": "curve of first compound, second compound 0.1 µM", "value": 4640, "unit": "nM"},
      {"measurement": "IC50", "setting": "curve of first compound, second compound 0.316 µM", "value": "< 31.6", "unit": "nM"},
      {"measurement": "IC50", "setting": "curve of first compound, second compound 1 µM", "value": "< 31.6", "unit": "nM"},
      {"measurement": "IC50", "setting": "curve of first compound, second compound 3.16 µM", "value": "< 31.6", "unit": "nM"},
      {"measurement": "IC50", "setting": "curve of first compound, second compound 10 µM", "value": "< 31.6", "unit": "nM"},
      {"measurement": "viability, T/C", "setting": "second compound 0.0316 µM, first compound 0.0316 µM", "value": 95.9, "unit": "%"},
      {"measurement": "viability, T/C", "setting": "second compound 0.0316 µM, first compound 0.1 µM", "value": 95.1, "unit": "%"},
      {"measurement": "viability, T/C", "setting": "second compound 0.0316 µM, first compound 0.316 µM", "value": 94, "unit": "%"},
      {"measurement": "viability, T/C", "setting": "second compound 0.0316 µM, first compound 1 µM", "value": 86.2, "unit": "%"},
      {"measurement": "viability, T/C", "setting": "second compound 0.0316 µM, first compound 3.16 µM", "value": 104, "unit": "%"},
      {"measurement": "viability, T/C", "setting": "second compound 0.0316 µM, first compound 10 µM", "value": 52.3, "unit": "%"},
      {"measurement": "viability, T/C", "setting": "second compound 0.1 µM, first compound 0.0316 µM", "value": 56.5, "unit": "%"},
      {"measurement": "viability, T/C", "setting": "second compound 0.1 µM, first compound 0.1 µM", "value": 57, "unit": "%"},
      {"measurement": "viability, T/C", "setting": "second compound 0.1 µM, first compound 0.316 µM", "value": 57.6, "unit": "%"},
      {"measurement": "viability, T/C", "setting": "second compound 0.1 µM, first compound 1 µM", "value": 60.9, "unit": "%"},
      {"measurement": "viability, T/C", "setting": "second compound 0.1 µM, first compound 3.16 µM", "value": 59, "unit": "%"},
      {"measurement": "viability, T/C", "setting": "second compound 0.1 µM, first compound 10 µM", "value": 34, "unit": "%"},
      {"measurement": "viability, T/C", "setting": "second compound 0.316 µM, first compound 0.0316 µM", "value": 37.2, "unit": "%"},
      {"measurement": "viability, T/C", "setting": "second compound 0.316 µM, first compound 0.1 µM", "value": 43.9, "unit": "%"},
      {"measurement": "viability, T/C", "setting": "second compound 0.316 µM, first compound 0.316 µM", "value": 33, "unit": "%"},
      {"measurement": "viability, T/C", "setting": "second compound 0.316 µM, first compound 1 µM", "value": 25.7, "unit": "%"},
      {"measurement": "viability, T/C", "setting": "second compound 0.316 µM, first compound 3.16 µM", "value": 19.6, "unit": "%"},
      {"measurement": "viability, T/C", "setting": "second compound 0.316 µM, first compound 10 µM", "value": 20.4, "unit": "%"},
      {"measurement": "viability, T/C", "setting": "second compound 1 µM, first compound 0.0316 µM", "value": 35.1, "unit": "%"},
      {"measurement": "viability, T/C", "setting": "second compound 1 µM, first compound 0.1 µM", "value": 39.7, "unit": "%"},
      {"measurement": "viability, T/C", "setting": "second compound 1 µM, first compound 0.316 µM", "value": 34.3, "unit": "%"},
      {"measurement": "viability, T/C", "setting": "second compound 1 µM, first compound 1 µM", "value": 26.4, "unit": "%"},
      {"measurement": "viability, T/C", "setting": "second compound 1 µM, first compound 3.16 µM", "value": 21.5, "unit": "%"},
      {"measurement": "viability, T/C", "setting": "second compound 1 µM, first compound 10 µM", "value": 17.1, "unit": "%"},
      {"measurement": "viability, T/C", "setting": "second compound 3.16 µM, first compound 0.0316 µM", "value": 41.6, "unit": "%"},
      {"measurement": "viability, T/C", "setting": "second compound 3.16 µM, first compound 0.1 µM", "value": 41, "unit": "%"},
      {"measurement": "viability, T/C", "setting": "second compound 3.16 µM, first compound 0.316 µM", "value": 34.5, "unit": "%"},
      {"measurement": "viability, T/C", "setting": "second compound 3.16 µM, first compound 1 µM", "value": 27.2, "unit": "%"},
      {"measurement": "viability, T/C", "setting": "second compound 3.16 µM, first compound 3.16 µM", "value": 22.8, "unit": "%"},
      {"measurement": "viability, T/C", "setting": "second compound 3.16 µM, first compound 10 µM", "value": 20.3, "unit": "%"},
      {"measurement": "viability, T/C", "setting": "second compound 10 µM, first compound 0.0316 µM", "value": 40.7, "unit": "%"},
      {"measurement": "viability, T/C", "setting": "second compound 10 µM, first compound 0.1 µM", "value": 33.7, "unit": "%"},
      {"measurement": "viability, T/C", "setting": "second compound 10 µM, first compound 0.316 µM", "value": 29.8, "unit": "%"},
      {"measurement": "viability, T/C", "setting": "second compound 10 µM, first compound 1 µM", "value": 26.5, "unit": "%"},
      {"measurement": "viability, T/C", "setting": "second compound 10 µM, first compound 3.16 µM", "value": 19.6, "unit": "%"},
      {"measurement": "viability, T/C", "setting": "second compound 10 µM, first compound 10 µM", "value": 17.3, "unit": "%"}
    ]}
  ]
}
